According to patent USRE30456E, “2-Substituted phenyl-s-triazolo[5,1-a] isoquinoline compounds” (Gruppo Lepetit S.p.A., priority 1973, dated 1980):

Test system: carrageenin induced edema
Assay: carrageenin test in rats (anti-inflammatory activity)
Assay type: in vivo
Description: The anti-inflammatory activity of some inventive compounds was evidenced by means of the carrageenin test in rats.

| Structure (SMILES) | inhibition of the carrageenin induced edema (50 mg./kg. p.o.) | inhibition of the carrageenin induced edema (100 mg./kg. p.o.) |
| --- | --- | --- |
| Sc1nc2n(n1)CCc1ccccc1-2 [Example 38, 2-Sulfhydryl-5,6-dihydro-s-triazolo[5,1-a]isoquinoline] | about 35% | – |
| NC(=O)Nc1nc2n(n1)CCc1ccccc1-2 [Example 54, 2-Ureido-5,6-dihydro-s-triazolo[5,1-a]isoquinoline] | – | about 35% |
